Source: patent US20240376092A1 (priority 2021, published 2024)
Like-named read-outs stand apart in the source and are kept apart here.

Experiments:
[1] = system: HEK293 cells expressing ΔCR PrP; assay: cells; assay type: cell-based; parameters: Emax: dose or concentration left out as unconfirmed; conditions: for Emax / Emax at 1 µM: HEK293, 48 h, read-out: % RMAX: maximum rescuing effect, expressed as percentage of the effect of SM3(LD24) at the same concentration; for IC50: HEK293, read-out: IC50 (rescuing dose at 50%)
[2] = system: naive HEK293 cells; assay: Intrinsic toxicity in naive HEK293 cells (MTT); assay type: cell-based; conditions: 8-point dose-response curve, 48 h
Text: FIG. 3. Dose-response analysis of selected compounds. (A) Chemical structures of the selected molecules are shown in panel. (B) A dose-response analysis using the DBCA was employed to evaluate the anti-ΔCR PrP effects of the different molecules. The graphs show a quantification of the dose-dependent, rescuing effect of each molecule. Average values were obtained from a minimum of 3 independent experiments (n≥3), and expressed as a percentage of cell viability in untreated cells. Data were fitted to a sigmoidal function using a 4-parameter logistic (4PL) non-linear regression model, allowing the estimation of the half-maximal inhibitory concentration (IC50). (C) The intrinsic toxicity of each compound was evaluated in naive HEK293 cells, exposed to each molecule/concentration for 48 h at 37° C. Cytotoxicity was evaluated by MTT. Average values were obtained from a minimum of 3 independent experiments (n≥3), and expressed as a percentage of cell viability in untreated cells. Data were fitted to an inverse sigmoidal function using a 4PL non-linear regression model, allowing the estimation of the half-maximal toxicity dose (LD50).
The DBCA was performed as described previously^24, with minor modifications. Briefly, HEK293 cells expressing ΔCR PrP were cultured at ˜60% confluence in 24-well plates on day 1. On day 2, cells were treated with 500 μg/mL of Zeocinfor. Medium (containing fresh Zeocin and/or compound or vehicle) was replaced every 24 hr. On day 5, cell medium was removed and cells were incubated with 1 mg/mL of 3-(4,5-dimethylthiazol-2-yl)-2,5-diphenyltetrazolium bromide (MTT, Sigma Aldrich, St. Louis, MO) in PBS for 30 min at 37° C. MTT was carefully removed, and cells were re-suspended in 500 μL of DMSO. Values for each well were obtained by measuring at 570 nm, using a plate spectrophotometer (Biotek).

[3] = system: Fyn kinase; assay type: cell-based, mouse
[4] = system: primary hippocampal neurons; assay type: cell-based, mouse
[5] = target: T1, full-length human recombinant PrPC (Homo sapiens, UniProt P04156); assay type: binding; conditions: 0.1-1000 μM, highest concentration 1 mM
[6] = system: PrPC; conditions: HEK293 WT PrPC, 48 hours
[7] = system: PrPC; assay type: cell-based, mouse; conditions: especially in DC2
[8] = system: DC2; assay type: cell-based, mouse
[9] = mouse, in vivo
[10] = system: FXR; assay type: cell-based, mouse
[11] = in vitro; conditions: rat, microsomes
[12] = system: M1000 prion strain; parameters: species or system mouse; conditions: slices treated with M1000 prion lysate
[13] = system: cDC2; assay type: cell-based, mouse
[14] = target: T1, full-length human recombinant PrPC; conditions: cited from earlier work

| Molecule | Emax [1] | IC50 [1] | LD50 (lethal dose at 50%) [2] | other results |
| --- | --- | --- | --- | --- |
| O=C(CN1c2ccc(Br)cc2-c2ccccc2S1(=O)=O)NC1CCCCC1 [SM3, 2-(9-Bromo-5,5-dioxido-6H-dibenzo[c,e][1,2]thiazin-6-yl)-N-cyclohexylacetamide, reference compound] | 100% | 1100 nM | >100 µM |  |
| O=C(CN1c2cc(Br)ccc2-c2ccccc2S1(=O)=O)NC1CCCCC1 [SM228, 2-(8-Bromo-5,5-dioxido-6H-dibenzo[c,e][1,2]thiazin-6-yl)-N-cyclohexylacetamide] | 123% | 210 nM | 37.46 µM |  |
| O=C(CN1c2cccc(Br)c2-c2ccccc2S1(=O)=O)NC1CCCCC1 [SM229, 2-(10-bromo-5,5-dioxido-6H-dibenzo[c,e][1,2]thiazin-6-yl)-N-cyclohexylacetamide] | 121% | 250 nM | 28.21 µM |  |
| O=C(CN1c2ccc(C(F)(F)F)cc2-c2ccccc2S1(=O)=O)NC1CCCCC1 [SM231, N-cyclohexyl-2-[5,5-dioxido-9-(trifluoromethyl)-6H-dibenzo[c,e][1,2]thiazin-6-yl]acetamide] | 140% | 140 nM | 22.4 µM | effect on Aβ-induced Fyn phosphorylation [3]: completely abrogated Aβ effects; effect on Aβ-induced decrease of post-synaptic markers (GluN2A, GluN2B, GluA1, GluA2, PSD-95) [4]: significantly rescued the levels of all the post-synaptic markers; binding to recombinant PrPC by DMR [5]: no interaction was observed; total PrPC expression [6]: no difference in PrPC expression was found; PrPC level in DC1 and DC2 [7]: slightly increases; expansion of FoxP3+ LAP+ Treg cells by treated DC2 [8]: favor the expansion of T cells expressing Treg cell markers FoxP3 and LAP; EAE clinical score / disease severity [9]: reduced disease as compared to control mice; secretion of IL-17A and GM-CSF by CD4+ T cells from cervical lymph nodes re-stimulated with MOG [9]: reduced secretion of inflammatory cytokines; white matter demyelination and inflammatory infiltrates [9]: reduced; FXR transcriptional activity (FXR, Nr0b2 mRNA) [10]: promoted significant FXR transcriptional activity; half-life [11]: 25 min |
| O=C(CN1c2ccc(C(F)(F)F)cc2-c2ccc(F)cc2S1(=O)=O)NN1CCOCC1 [SM881, 2-[3-Fluoro-5,5-dioxido-9-(trifluoromethyl)-6H-dibenzo[c,e][1,2]thiazin-6-yl]-N-morpholin-4-ylacetamide] | 150% | 32 nM | >100 µM |  |
| O=C(CN1c2ccc(C(F)(F)F)cc2-c2ccc(F)cc2S1(=O)=O)NC1CCCCC1 [SM882, N-cyclohexyl-2-(3-fluoro-5,5-dioxido-9-(trifluoromethyl)-6H-dibenzo[c,e][1,2]thiazin-6-yl)acetamide] | 139% | 44 nM | >100 µM |  |
| CCOc1ccc2c(c1)S(=O)(=O)N(CC(=O)NC1CCCCC1)c1ccc(C(F)(F)F)cc1-2 [SM883, N-cyclohexyl-2-(3-ethoxy-5,5-dioxido-9-(trifluoromethyl)-6H-dibenzo[c,e][1,2]thiazin-6-yl)acetamide] | 166% | 14 nM | >100 µM |  |
| CCC(CC)NC(=O)CN1c2ccc(C(F)(F)F)cc2-c2ccc(F)cc2S1(=O)=O [SM884, N-(1-Ethylpropyl)-2-[3-fluoro-5,5-dioxido-9-(trifluoromethyl)-6H-dibenzo[c,e][1,2]thiazin-6-yl]acetamide] | 211% | 18 nM | >100 µM | rescue of long-term potentiation (LTP) ([12]; 0.03 μM): 71%; rescue of long-term potentiation (LTP) ([12]; 0.1 μM): 34% |
| O=C(CN1c2ccc(C(F)(F)F)cc2-c2ccc(F)cc2S1(=O)=O)NC1CCOCC1 [SM885, 2-[3-Fluoro-5,5-dioxido-9-(trifluoromethyl)-6H-dibenzo[c,e][1,2]thiazin-6-yl]-N-(tetrahydro-2H-pyran-4-yl)acetamide] | 123% | 53 nM | >100 µM |  |
| O=C(CN1c2ccc(C(F)(F)F)cc2-c2ccccc2S1(=O)=O)NC(CCO)CCO [SM887, 2-[5,5-dioxido-9-(trifluoromethyl)-6H-dibenzo[c,e][1,2]thiazin-6-yl]-N-[3-hydroxy-1-(2-hydroxyethyl)propyl]acetamide] |  |  |  | Emax at 1 µM [1]: ~50%; antigen-specific CD4+ T cell proliferation after cDC2 treatment [13]: significantly affected |
| O=C(CN1c2ccc(C(F)(F)F)cc2-c2ccc(F)cc2S1(=O)=O)NC(CCO)CCO [SM888, 2-[3-Fluoro-5,5-dioxido-9-(trifluoromethyl)-6H-dibenzo[c,e][1,2]thiazin-6-yl]-N-[3-hydroxy-1-(2-hydroxyethyl)propyl]acetamide] |  |  |  | Emax at 1 µM [1]: ~50%; antigen-specific CD4+ T cell proliferation after cDC2 treatment [13]: suppress antigen-specific CD4+ T cell proliferation |
| CCC(CN(C)C)NC(=O)CN1c2ccc(C(F)(F)F)cc2-c2ccc(F)cc2S1(=O)=O (centres unmarked) [SM889, N-{1-[(dimethylamino)methyl]propyl}-2-[3-fluoro-5,5-dioxido-9-(trifluoromethyl)-6H-dibenzo[c,e][1,2]thiazin-6-yl]acetamide] |  |  |  | Emax at 1 µM [1]: ~50%; antigen-specific CD4+ T cell proliferation after cDC2 treatment [13]: suppress antigen-specific CD4+ T cell proliferation |
| Fe(III)-TMPyP [reference compound] |  |  |  | effect on Aβ-induced Fyn phosphorylation [3]: prevented; effect on Aβ-induced decrease of post-synaptic markers (GluN2A, GluN2B, GluA1, GluA2, PSD-95) [4]: rescued; EAE clinical score / disease severity [9]: ameliorate EAE severity; affinity for PrPC, previously reported [14]: high |
